Measurements published in patent publication US20260364038A1, “VASODILATOR, NITRIC OXIDE SYNTHASE PRODUCTION PROMOTER, AND USE OF SAME” (J-OIL MILLS, INC., priority 2022, published 2026).
Like-named read-outs stand apart in the source and are kept apart here.

What was measured:
[1] = test system: endothelial nitric oxide synthase (eNOS) genetic expression in HUVECs; assay: Relative eNOS genetic expression amount in HUVECs (OneStep real-time RT-PCR, Taqman probe, ddCt method); type: cell-based; settings: 24 hours; for Relative eNOS genetic expression amount, Significant difference: vs control example 1, Dunnett's test; for action for promoting production of endothelial nitric oxide synthase (conclusion in words): 30 μM; for fold induction at 30 µM / fold induction at 1 µM: Homo sapiens, HUVEC
Protocol: HUVECs (made by Lonza; catalog no.: C2519AS)
EGM-2 (made by Lonza; catalog no.: CC-3162)
The substances under test in (1) to (3) below were each dissolved in dimethyl sulfoxide (DMSO) (made by Nacalai Tesque) to prepare solutions having a concentration of 30 mM, and the solutions were added to the culture medium at a 1/1000 proportion to prepare culture media in which the target final concentration of the respective substances under test was 30 μM (Examples 1 to 3).
• (1) Tetradecanoic acid (C14:0) (purity: 100%; made by Sigma-Aldrich) • (2) Pentadecanoic acid (C15:0) (purity: 98.8%; made by Sigma-Aldrich) • (3) Tridecanoic acid (C13:0) (purity: 99.2%; made by Sigma-Aldrich) • (4) Fluvastatin (made by Tokyo Chemical Industry Co., Ltd.; model no.: F0820)
The HUVECs were thawed in a T75 flask and cultured in a CO2 incubator (“SCA-165DRS” made by Astec Co., Ltd.; conditions: 37 °C, 5% CO2, humid; same below) using the EGM-2. The cells were isolated using a 0.05% concentration trypsin solution (“Trypsin-EDTA (0.05%), phenol red” made by Thermo Fisher Scientific; catalog no.: 25300054), sown in a 96-well plate using the culture medium, and cultured in the CO2 incubator. The next day, the culture medium was replaced with the culture media prepared in section “(3. Preparation of substances under test)” above, and the cells were then cultured for 24 hours in the CO2 incubator to carry out treatment using the substances under test.
[5. RNA Extraction, qPCR]
After the treatment, a culture medium supernatant was recovered, RNA was extracted from the cells using a FastLane Cell Probe kit (made by QIAGEN; catalog no.: 215011), OneStep real-time RT-PCR was carried out using a Taqman probe, and the relative eNOS genetic expression amount was calculated by means of the ddCt method. The relative eNOS genetic expression amount was derived by dividing the eNOS genetic expression amount by the GAPDH genetic expression amount.
A significant difference between the substance-under-test treatment groups (control example 2 and the examples) and control example 1 was certified by means of Dunnett's test.

[2] = test system: endothelial nitric oxide synthase; settings: positive control; stated as known; cited from earlier work
[3] = 30 μM final concentration, average of n1-n5, control example 1 (none added) = 1.00, read-out: Relative eNOS genetic expression amount, Average value of n1-n5
[4] = 30 μM final concentration, replicate n1, eNOS/GAPDH, relative to control example 1, read-out: Relative eNOS genetic expression amount, n1
[5] = 30 μM final concentration, replicate n2, eNOS/GAPDH, relative to control example 1, read-out: Relative eNOS genetic expression amount, n2
[6] = 30 μM final concentration, replicate n3, eNOS/GAPDH, relative to control example 1, read-out: Relative eNOS genetic expression amount, n3
[7] = 30 μM final concentration, replicate n4, eNOS/GAPDH, relative to control example 1, read-out: Relative eNOS genetic expression amount, n4
[8] = 30 μM final concentration, replicate n5, eNOS/GAPDH, relative to control example 1, read-out: Relative eNOS genetic expression amount, n5

CCCCCCCCCCCCCC(=O)O [Example 1, Tetradecanoic acid]
Relative eNOS genetic expression amount, Significant difference ([1]; 30 μM final concentration): ** (Level of significance across both sides: 1%)
action for promoting production of endothelial nitric oxide synthase (conclusion in words) [1]: have an action for promoting production of endothelial nitric oxide synthase
fold induction at 30 µM [1, 3]: 1.26
fold induction at 30 µM [1, 4]: 1.27
fold induction at 30 µM [1, 5]: 1.26
fold induction at 30 µM [1, 6]: 1.31
fold induction at 30 µM [1, 7]: 1.12
fold induction at 30 µM [1, 8]: 1.33

CCCCCCCCCCCCCCC(=O)O [Example 2, Pentadecanoic acid]
Relative eNOS genetic expression amount, Significant difference ([1]; 30 μM final concentration): ** (Level of significance across both sides: 1%)
action for promoting production of endothelial nitric oxide synthase (conclusion in words) [1]: have an action for promoting production of endothelial nitric oxide synthase
fold induction at 30 µM [1, 3]: 1.26
fold induction at 30 µM [1, 4]: 1.15
fold induction at 30 µM [1, 5]: 1.28
fold induction at 30 µM [1, 6]: 1.2
fold induction at 30 µM [1, 7]: 1.36
fold induction at 30 µM [1, 8]: 1.3

CCCCCCCCCCCCC(=O)O [Example 3, Tridecanoic acid]
Relative eNOS genetic expression amount, Significant difference ([1]; 30 μM final concentration): ** (Level of significance across both sides: 1%)
action for promoting production of endothelial nitric oxide synthase (conclusion in words) [1]: have an action for promoting production of endothelial nitric oxide synthase
fold induction at 30 µM [1, 3]: 1.25
fold induction at 30 µM [1, 4]: 1.15
fold induction at 30 µM [1, 5]: 1.33
fold induction at 30 µM [1, 6]: 1.26
fold induction at 30 µM [1, 7]: 1.28
fold induction at 30 µM [1, 8]: 1.24

CC(C)n1c(/C=C/C(O)CC(O)CC(=O)O)c(-c2ccc(F)cc2)c2ccccc21 (stereo not drawn) [Fluvastatin, reference compound]
known action for promoting the production of endothelial nitric oxide synthase [2]: known to have an action for promoting the production of endothelial nitric oxide synthase
Relative eNOS genetic expression amount (in words) ([1]; 1 μM (control example 2), compared with control example 1): significantly higher than that in control example 1
Relative eNOS genetic expression amount, Significant difference ([1]; 1 μM final concentration (positive control)): ** (Level of significance across both sides: 1%)
fold induction at 1 µM ([1]; 1 μM final concentration (positive control), average of n1-n5, control example 1 (none added) = 1.00, read-out: Relative eNOS genetic expression amount, Average value of n1-n5): 2.62
fold induction at 1 µM ([1]; 1 μM final concentration (positive control), replicate n1, eNOS/GAPDH, relative to control example 1, read-out: Relative eNOS genetic expression amount, n1): 2.45
fold induction at 1 µM ([1]; 1 μM final concentration (positive control), replicate n2, eNOS/GAPDH, relative to control example 1, read-out: Relative eNOS genetic expression amount, n2): 2.57
fold induction at 1 µM ([1]; 1 μM final concentration (positive control), replicate n3, eNOS/GAPDH, relative to control example 1, read-out: Relative eNOS genetic expression amount, n3): 2.57
fold induction at 1 µM ([1]; 1 μM final concentration (positive control), replicate n4, eNOS/GAPDH, relative to control example 1, read-out: Relative eNOS genetic expression amount, n4): 2.89
fold induction at 1 µM ([1]; 1 μM final concentration (positive control), replicate n5, eNOS/GAPDH, relative to control example 1, read-out: Relative eNOS genetic expression amount, n5): 2.61
